ChEMBL document CHEMBL1142751, “Synthesis and biological activity of mustard derivatives of combretastatins” (Bioorg Med Chem Lett, 2005)

Each compound was assayed on SH-SY5Y (assay: Inhibitory concentration against Human SH-SY5Y neuroblastoma cells).
Format: functional, cell-based

Row | Structure (SMILES) | IC50 [nM]
1 | COc1ccc(/C=C\c2cc(OC)c(OC)c(OC)c2)cc1OCCN(CCCl)CCCl | 230
2 | COc1ccc(/C=C\c2cc(OC)c(OC)c(OC)c2)cc1N(CCO)CCO | > 10000
3 | COc1ccc(/C=C\c2cc(OC)c(OC)c(OC)c2)cc1O [COMBRETASTATIN A4] | 1.5
4 | COc1ccc(/C=C\c2cc(OC)c(OC)c(OC)c2)cc1N(CCCl)CCCl | 860
5 | COc1ccc(/C=C\c2cc(OC)c(OC)c(OC)c2)cc1OC(=O)CCCc1ccc(N(CCCl)CCCl)cc1 | 0.64
